Literature values, collected in patent publication US20260256858A1, “Amanita Muscaria Mushroom Extracts and Products, and Improved Processes for Producing Extracts of Amanita Muscaria Mushrooms at Kilogram Scale” (priority 2023, published 2026).

What was measured:
[1] = after ingestion of Amanita mushrooms
[2] = IV injection, 8 μmol/kg, 150 g rat

## N[C@H](C(=O)O)c1cc(=O)[nH]o1 [ibotenic acid, (S)-2-amino-2-(3-hydroxyisoxazol-5-yl) acetic acid]
[1]
  detection in urine after ingestion: detected within an hour after ingestion

## NCc1cc(=O)[nH]o1 [muscimol, 5-(aminomethyl)-1,2-oxazol-3 (2H)-one]
[1]
  detection in urine after ingestion: detected within an hour after ingestion
IV injection of 3H-muscimol, 8 μmol/kg, rat
  brain regions with the highest muscimol concentration: the substantia nigra, the colliculi and the hypothalamus
[2]
  amount of the dose injected that crossed to the brain: approximately 0.02%
  muscimol concentration in brain: approximately 200 pmol/g tissue
After intravenous injection, rat
  time until blood concentration was below limits of detection: ≤ 180 min
Intracerebroventricular injection, 1200 nmol/kg, rat
  distribution in corneum stratum compared to hypothalamus, hippocampus and cortex: approximately 2 times higher
Intravenous injection of muscimol, 8 μmol/kg, rat
  tolerability (adverse effects or toxicity): well-tolerated
